Results reported in patent US20120157451A1, “RAF INHIBITOR COMPOUNDS AND METHODS OF USE THEREOF” (GENENTECH, INC, priority 2009, published 2012).

tested on: basal ERK1/2 phosphorylation in Malme-3M cells; test: Cellular ERK 1/2 phosphorylation assay; type: cell-based; conditions: Homo sapiens, 1 hour incubation, pERK normalized to total ERK, representative data of multiple tests
Experimental: Inhibition of basal ERK1/2 phosphorylation was determined by the following in vitro […], which comprises incubating cells with a compound of Formula I for 1 hour and quantifying the fluorescent pERK signal on fixed cells and normalizing to total ERK signal.
Materials and Methods: Malme-3M cells were obtained from ATCC and grown in RPMI-1640 supplemented with 10% fetal bovine serum. Cells were plated in 96-well plates at 24,000 cells/well and allowed to attach for 16-20 hours at 37° C., 5% CO2. The media was removed, and DMSO-diluted compounds were added in RPMI-1640 at a final concentration of 1% DMSO. The cells were incubated with the compounds for 1 hour at 37° C., 5% CO2. The cells were washed with PBS and fixed in 3.7% formaldehyde in PBS for 15 minutes. This was followed by washing in PBS/0.05% Tween20 and permeabilizing in −20° C. 100% MeOH for 15 minutes. Cells were washed in PBS/0.05% Tween20 then blocked in Odyssey blocking buffer (LI-COR Biosciences) for 1 hour. Antibodies to phosphorylated ERK (1:400, Cell Signaling #9106, monoclonal) and total ERK (1:400, Santa Cruz Biotechnology #sc-94, polyclonal) were added to the cells and incubated 16-20 hours at 4° C. After washing with PBS/0.05% Tween20, the cells were incubated with fluorescently-labeled secondary antibodies (1:1000 goat anti-rabbit IgG-IRDye800, Rockland and 1:500 goat anti-mouse IgG-Alexa Fluor 680, Molecular Probes) for an additional hour. Cells were then washed and analyzed for fluorescence at both wavelengths using the Odyssey Infrared Imaging System (LI-COR Biosciences). Phosphorylated ERK signal was normalized to total ERK signal.

| Structure (SMILES) | IC50 [µM] |
| --- | --- |
| CCCS(=O)(=O)Nc1ccc(F)c(C(=O)Nc2cnc3cc(-c4ccccc4)nn3c2)c1F [Example 5, 2,6-difluoro-N-(2-phenylpyrazolo[1,5-a]pyrimidin-6-yl)-3-(propylsulfonamido)benzamide] | 0.0139 |

molecular target: T1, V600E full-length B-Raf (Homo sapiens, UniProt P15056, V600E); test: B-Raf IC50 assay (incorporation of radiolabeled phosphate from [γ-33P]ATP into FSBA-modified wild-type MEK); type: biochemical; conditions: bound stated
T1 construct: made in house; host or cells: Sf9 insect cells (baculovirus)
From the text: Determining the activity of Raf in the sample is possible by a number of direct and indirect detection methods (US 2004/0082014). Activity of human recombinant B-Raf protein may be assessed in vitro by assay of the incorporation of radio labeled phosphate to recombinant MAP kinase (MEK), a known physiologic substrate of B-Raf, according to US 2004/0127496 and WO 03/022840.
Activity of human recombinant B-Raf protein may be assessed in vitro by assay of the incorporation of radio labeled phosphate to recombinant MAP kinase (MEK), a known physiologic substrate of B-Raf, according to US 2004/0127496 and WO 03/022840. Catalytically active human recombinant B-Raf protein is obtained by purification from sf9 insect cells infected with a human B-Raf recombinant baculovirus expression vector.
Incubations were carried out at 22° C. in a Costar 3365 plate (Corning). Prior to the assay, the B-Raf and FSBA-MEK were preincubated together in assay buffer at 1.5× (20 μL of 30 nM and 1.5 μM, respectively) for 15 minutes, and the assay was initiated by the addition of 10 μL of 10 μM ATP. Following the 60-minute incubation, the assay mixtures were quenched by the addition of 100 μL of 25% TCA, the plate was mixed on a rotary shaker for 1 minute, and the product was captured on a Perkin-Elmer GF/B filter plate using a Tomtec Mach III Harvester. After sealing the bottom of the plate, […] of Bio-Safe II (Research Products International) scintillation cocktail were added to each well and the plate was top-sealed and counted in a Topcount NXT (Packard).

T1 sequence (P15056 whole entry V600E): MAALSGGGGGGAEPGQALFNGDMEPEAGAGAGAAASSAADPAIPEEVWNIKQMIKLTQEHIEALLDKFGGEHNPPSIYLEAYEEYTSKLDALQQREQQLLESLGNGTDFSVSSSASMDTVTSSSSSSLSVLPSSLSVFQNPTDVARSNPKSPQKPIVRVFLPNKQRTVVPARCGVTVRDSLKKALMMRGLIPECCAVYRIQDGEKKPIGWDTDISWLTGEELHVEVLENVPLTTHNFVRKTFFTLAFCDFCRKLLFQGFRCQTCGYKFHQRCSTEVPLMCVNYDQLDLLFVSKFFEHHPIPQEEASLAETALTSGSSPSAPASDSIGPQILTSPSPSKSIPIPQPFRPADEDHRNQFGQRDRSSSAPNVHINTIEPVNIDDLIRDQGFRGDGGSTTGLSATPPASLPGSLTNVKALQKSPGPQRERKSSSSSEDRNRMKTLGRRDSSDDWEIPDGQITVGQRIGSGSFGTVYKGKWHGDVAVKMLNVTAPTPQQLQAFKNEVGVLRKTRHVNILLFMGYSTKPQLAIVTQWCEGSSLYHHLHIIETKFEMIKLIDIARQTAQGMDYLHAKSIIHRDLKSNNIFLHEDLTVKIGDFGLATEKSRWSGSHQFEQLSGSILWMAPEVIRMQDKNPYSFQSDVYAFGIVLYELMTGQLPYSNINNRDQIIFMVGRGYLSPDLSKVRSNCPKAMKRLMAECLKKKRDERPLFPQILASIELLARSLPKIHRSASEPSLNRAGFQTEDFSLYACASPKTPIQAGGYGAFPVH

| Structure (SMILES) | IC50 [µM] |
| --- | --- |
| CCCS(=O)(=O)Nc1ccc(F)c(C(=O)Nc2cnc3cc(NC(C)C)nn3c2)c1F [Example 18, 2,6-difluoro-N-(2-(isopropylamino)pyrazolo[1,5-a]pyrimidin-6-yl)-3-(propylsulfonamido)benzamide] | < 0.3 |
| CCCS(=O)(=O)Nc1ccc(F)c(C(=O)Nc2cnc3ccnn3c2)c1F [Example 27, 2,6-difluoro-3-(propylsulfonamido)-N-(pyrazolo[1,5-a]pyrimidin-6-yl)benzamide] | < 0.3 |
| CCCS(=O)(=O)Nc1ccc(F)c(C(=O)Nc2cnc3cc(C4CCNCC4)nn3c2)c1F [Example 4, 2,6-difluoro-N-(2-(piperidin-4-yl)pyrazolo[1,5-a]pyrimidin-6-yl)-3-(propylsulfonamido)benzamide] | < 0.3 |
| CCCS(=O)(=O)Nc1ccc(F)c(C(=O)Nc2cnc3cc(-c4ccc(F)cc4)nn3c2)c1F [Example 7, 2,6-difluoro-N-(2-(4-fluorophenyl)pyrazolo[1,5-a]pyrimidin-6-yl)-3-(propylsulfonamido)benzamide] | < 0.15 |
| CCCS(=O)(=O)Nc1ccc(F)c(C(=O)Nc2cnc3cc(C4CCOC4)nn3c2)c1F (stereo not shown) [Example 31, 2,6-difluoro-3-(propylsulfonamido)-N-(2-(tetrahydrofuran-3-yl)pyrazolo[1,5-a]pyrimidin-6-yl)benzamide] | < 0.3 |
| CCCS(=O)(=O)Nc1ccc(Cl)c(C(=O)Nc2cnc3cc(-c4ccccc4)nn3c2)c1F [Example 33, 6-chloro-2-fluoro-N-(2-phenylpyrazolo [1,5-a]pyrimidin-6-yl)-3-(propylsulfonamido) benzamide] | < 0.15 |
| CCCS(=O)(=O)Nc1ccc(F)c(C(=O)Nc2cnc3cc(NC)nn3c2)c1F [Example 35, 2,6-difluoro-N-(2-(methylamino)pyrazolo[1,5-a]pyrimidin-6-yl)-3-(propylsulfonamido) benzamide] | < 0.15 |
| CCCS(=O)(=O)Nc1ccc(F)c(C(=O)Nc2cnc3cc(C(F)(F)F)nn3c2)c1F [Example 32, 2,6-difluoro-3-(propylsulfonamido)-N-(2-(trifluoromethyl)pyrazolo[1,5-a]pyrimidin-6-yl)benzamide] | < 0.15 |
| CCCS(=O)(=O)Nc1ccc(F)c(C(=O)Nc2cnc3cc(OCC)nn3c2)c1F [Example 3, N-(2-ethoxypyrazolo[1,5-a]pyrimidin-6-yl)-2,6-difluoro-3-(propylsulfonamido)benzamide] | < 0.15 |
| CCCS(=O)(=O)Nc1ccc(F)c(C(=O)Nc2cnc3cc(N4CCOCC4)nn3c2)c1F [Example 36, 2,6-difluoro-N-(2-morpholinopyrazolo [1,5-a]pyrimidin-6-yl)-3-(propylsulfonamido) benzamide] | < 0.3 |
| CCCS(=O)(=O)Nc1ccc(F)c(C(=O)Nc2cnc3cc(C4CCCC4)nn3c2)c1F [Example 30, N-(2-cyclopentylpyrazolo [1,5-a]pyrimidin-6-yl)-2,6-difluoro-3-(propylsulfonamido) benzamide] | < 0.15 |
| CCCS(=O)(=O)Nc1ccc(F)c(C(=O)Nc2cnc3cc(CC)nn3c2)c1F [Example 29, N-(2-ethylpyrazolo[1,5-a]pyrimidin-6-yl)-2,6-difluoro-3-(propylsulfonamido) benzamide] | < 0.15 |
| CCCS(=O)(=O)Nc1ccc(F)c(C(=O)Nc2cnc3cc(-c4cccc(F)c4)nn3c2)c1F [Example 9, 2,6-difluoro-N-(2-(3-fluorophenyl)pyrazolo[1,5-a]pyrimidin-6-yl)-3-(propylsulfonamido)benzamide] | < 0.15 |

Second part, the molecule after the results:

| IC50 [µM] | Structure (SMILES) |
| --- | --- |
| < 0.15 | COc1cc2ncc(NC(=O)c3c(F)ccc(NS(=O)(=O)CCCF)c3F)cn2n1 [Example 21, 2,6-difluoro-3-(3-fluoropropyl-sulfonamido)-N-(2-methoxypyrazolo [1,5-a]pyrimidin-6-yl)benzamide] |
| < 0.15 | CCCS(=O)(=O)Nc1ccc(F)c(C(=O)Nc2cnc3cc(OC(C)C)nn3c2)c1F [Example 2, 2,6-difluoro-N-(2-isopropoxypyrazolo[1,5-a]pyrimidin-6-yl)-3-(propylsulfonamido)benzamide] |
| < 0.15 | CCCS(=O)(=O)Nc1ccc(F)c(C(=O)Nc2cnc3cc(-c4ccc(Cl)cc4)nn3c2)c1F [Example 6, N-(2-(4-chlorophenyl)pyrazolo[1,5-a]pyrimidin-6-yl)-2,6-difluoro-3-(propylsulfonamido)benzamide] |
| < 0.15 | CCCS(=O)(=O)Nc1ccc(F)c(C(=O)Nc2cnc3cc(C)nn3c2)c1F [Example 26, 2,6-difluoro-N-(2-methylpyrazolo [1,5-a]pyrimidin-6-yl)-3-(propylsulfonamido) benzamide] |
| < 0.15 | CCCS(=O)(=O)Nc1ccc(F)c(C(=O)Nc2cnc3cc(-c4cnn(CCO)c4)nn3c2)c1F [Example 13, 2,6-difluoro-N-(2-(1-(2-hydroxyethyl)-1H-pyrazol-4-yl)pyrazolo[1,5-a]pyrimidin-6-yl)-3-(propylsulfonamido)benzamide] |
| < 0.15 | CCCS(=O)(=O)Nc1ccc(F)c(C(=O)Nc2cnc3cc(SC)nn3c2)c1F [Example 14, 2,6-difluoro-N-(2-(methylthio)pyrazolo[1,5-a]pyrimidin-6-yl)-3-(propylsulfonamido)benzamide] |
| < 0.15 | CCCS(=O)(=O)Nc1ccc(F)c(C(=O)Nc2cnc3cc(C4CC4)nn3c2)c1F [Example 28, N-(2-cyclopropylpyrazolo [1,5-a]pyrimidin-6-yl)-2,6-difluoro-3-(propylsulfonamido) benzamide] |
| < 0.15 | COc1cc2ncc(NC(=O)c3c(F)ccc(NS(=O)(=O)CC(C)C)c3F)cn2n1 [Example 25, 2,6-difluoro-N-(2-methoxypyrazolo [1,5-a]pyrimidin-6-yl)-3-(2-methylpropyl-sulfonamido) benzamide] |
| < 0.15 | CCCS(=O)(=O)Nc1ccc(F)c(C(=O)Nc2cnc3cc(OCCOC)nn3c2)c1F [Example 16, 2,6-difluoro-N-(2-(2-methoxyethoxy)pyrazolo[1,5-a]pyrimidin-6-yl)-3-(propylsulfonamido)benzamide] |
| < 0.15 | CCCS(=O)(=O)Nc1ccc(Cl)c(C(=O)Nc2cnc3cc(OC)nn3c2)c1F [Example 19, 6-chloro-2-fluoro-N-(2-methoxypyrazolo [1,5-a]pyrimidin-6-yl)-3-(propylsulfonamido) benzamide] |
| < 0.15 | CCCS(=O)(=O)Nc1ccc(F)c(C(=O)Nc2cnc3cc(OC)nn3c2)c1Cl [Example 20, 2-chloro-6-fluoro-N-(2-methoxypyrazolo [1,5-a]pyrimidin-6-yl)-3-(propylsulfonamido) benzamide] |
| < 0.15 | CCCS(=O)(=O)Nc1ccc(F)c(C(=O)Nc2cnc3cc(OCCO)nn3c2)c1F [Example 15, 2,6-difluoro-N-(2-(2-hydroxyethoxy)pyrazolo[1,5-a]pyrimidin-6-yl)-3-(propylsulfonamido)benzamide] |
| < 0.15 | CCCS(=O)(=O)Nc1ccc(F)c(C(=O)Nc2cnc3cc(-c4ccc(C)cc4)nn3c2)c1F [Example 8, 2,6-difluoro-3-(propylsulfonamido)-N-(2-p-tolylpyrazolo[1,5-a]pyrimidin-6-yl)benzamide] |
| < 0.15 | CCCS(=O)(=O)Nc1ccc(F)c(C(=O)Nc2cnc3cc(-c4cnn(C)c4)nn3c2)c1F [Example 12, 2,6-difluoro-N-(2-(1-methyl-1H-pyrazol-4-yl)pyrazolo[1,5-a]pyrimidin-6-yl)-3-(propylsulfonamido)benzamide] |
